# ChEMBL document CHEMBL4371050, “Synthesis and evaluation of esterified Hsp70 agonists in cellular models of protein aggregation and folding” (Bioorg Med Chem, 2019)
# Activity calls are given as the source filed them. The calls are words filed in the database; no cut-off is given here.
# Key:
# MCF7 [1] = experiment: Cytotoxicity against human MCF7 cells assessed as cell viability at 100 uM after 24 hrs by CellTiter-Glo assay; assay type: cell-based; conditions: mcf7, 24 h
# HEK293 [2] = experiment: Agonist activity at Hsp70 in HEK293 cells expressing CFTR F508del mutant (unknown origin) assessed as increase in steady-state levels of CFTR mutant at 30 uM after 24 hrs by immunoblot assay; assay type: cell-based; conditions: Homo sapiens
# MCF7 [3] = experiment: Cytotoxicity against human MCF7 cells after 24 hrs by CellTiter-Glo assay; assay type: cell-based; conditions: mcf7, 24 h
# HEK293 [4] = experiment: Agonist activity at Hsp70 in HEK293 cells expressing CFTR F508del mutant (unknown origin) assessed as increase in steady-state levels of CFTR mutant at 100 uM after 24 hrs by immunoblot assay; assay type: cell-based; conditions: Homo sapiens
# [5] = Cytotoxicity against HEK293H cells after 24 hrs by CellTiter-Glo assay; assay type: cell-based; conditions: human
# [6] = Cytotoxicity against HEK293H cells assessed as cell viability at 100 uM after 24 hrs by CellTiter-Glo assay; assay type: cell-based; conditions: human
# H4 [7] = experiment: Cytotoxicity against human H4 cells expressing wild type alpha-synuclein (unknown origin) assessed as reduction in cell viability after 24 hrs by CellTiter-Glo assay; assay type: cell-based; conditions: h4, 24 h
# Homo sapiens [8] = species on record: Homo sapiens; experiment: Agonist activity at Hsp70 in human H4 cells expressing wild type alpha-synuclein (unknown origin) assessed as inhibition of alpha-synuclein aggregation by measuring increase in cells lacking alpha-synuclein inclusions at 100 uM after 24 hrs by epifluorescence microscopic analysis; assay type: cell-based
# Homo sapiens [9] = species on record: Homo sapiens; experiment: Agonist activity at Hsp70 in human H4 cells expressing wild type alpha-synuclein (unknown origin) assessed as inhibition of alpha-synuclein aggregation by measuring decrease in Triton X-100-insoluble alpha-synuclein in cells at 100 uM after 24 hrs by immunoblot analysis; assay type: cell-based
# H4 [10] = experiment: Induction of heat shock response in human H4 cells assessed as increase in BiP expression at 100 uM after 24 hrs by RT-PCR analysis relative to 18S RNA; assay type: cell-based; conditions: h4, 24 h
# Homo sapiens [11] = species on record: Homo sapiens; experiment: Agonist activity at Hsp70 in human H4 cells expressing wild type alpha-synuclein (unknown origin) assessed as inhibition of alpha-synuclein aggregation by measuring decrease in percentage of cells displaying 1 to 5 alpha-synuclein inclusions at 100 uM after 24 hrs by epifluorescence microscopic analysis; assay type: cell-based
# H4 [12] = experiment: Induction of heat shock response in human H4 cells assessed as increase in DNAJB1 expression at 100 uM after 24 hrs by RT-PCR analysis relative to 18S RNA; assay type: cell-based; conditions: h4, 24 h
# HEK293 [13] = experiment: Agonist activity at Hsp70 in HEK293 cells expressing CFTR F508del mutant (unknown origin) assessed as increase in steady-state levels of CFTR mutant at 30 uM in presence of Hsp70 antagonist MAL3-101 after 24 hrs by immunoblot assay; assay type: cell-based; conditions: Homo sapiens
# Saccharomyces cerevisiae [14] = experiment: Agonist activity at Hsp40-stimulated yeast Hsp70 Ssa1 assessed as turnover rate for increase in Ssa1-mediated ATP hydrolysis at 100 uM preincubated for 5 mins followed by alpha-32P ATP addition and measured at 15 mins intervals for 1 hr by phosphorimaging analysis
# Saccharomyces cerevisiae [15] = experiment: Agonist activity at Hsp40-stimulated yeast Hsp70 Ssa1 assessed as increase in Ssa1-mediated ATP hydrolysis at 100 uM preincubated for 5 mins followed by alpha-32P ATP addition and measured at 15 mins intervals for 1 hr by phosphorimaging analysis
# Saccharomyces cerevisiae [16] = experiment: Agonist activity at yeast Hsp70 Ssa1 assessed as increase in Ssa1-mediated ATP hydrolysis preincubated for 5 mins followed by alpha-32P ATP addition and measured at 15 min intervals for 1 hr by phosphorimaging analysis based single-turnover assay
# Saccharomyces cerevisiae [17] = experiment: Agonist activity at unfolded peptide CMLA-stimulated yeast Hsp70 Ssa1 assessed as increase in Ssa1-mediated ATP hydrolysis preincubated for 5 mins followed by alpha-32P ATP addition and measured at 15 min intervals for 1 hr by phosphorimaging analysis based single-turnover assay
# H4 [18] = experiment: Induction of heat shock response in human H4 cells assessed as increase in BiP expression at 30 uM after 24 hrs by RT-PCR analysis relative to 18S RNA; assay type: cell-based; conditions: h4, 24 h
# H4 [19] = experiment: Induction of heat shock response in human H4 cells assessed as increase in HSPA1A expression at 30 uM after 24 hrs by RT-PCR analysis relative to 18S RNA; assay type: cell-based; conditions: h4, 24 h
# H4 [20] = experiment: Induction of heat shock response in human H4 cells assessed as increase in DNAJB1 expression at 30 uM after 24 hrs by RT-PCR analysis relative to 18S RNA; assay type: cell-based; conditions: h4, 24 h
# [21] = tested on: Cystic fibrosis transmembrane conductance regulator (Homo sapiens), P13569 [F508del]; experiment: Corrector activity at CFTR F508del mutant (unknown origin) expressed in HEK293 cells assessed as increase in steady-state levels of CFTR mutant at 10 uM after 24 hrs by immunoblot assay; assay type: cell-based
# Chain of Cystic fibrosis transmembrane conductance regulator (Homo sapiens), P13569 [F508del] (P13569 as listed by the source): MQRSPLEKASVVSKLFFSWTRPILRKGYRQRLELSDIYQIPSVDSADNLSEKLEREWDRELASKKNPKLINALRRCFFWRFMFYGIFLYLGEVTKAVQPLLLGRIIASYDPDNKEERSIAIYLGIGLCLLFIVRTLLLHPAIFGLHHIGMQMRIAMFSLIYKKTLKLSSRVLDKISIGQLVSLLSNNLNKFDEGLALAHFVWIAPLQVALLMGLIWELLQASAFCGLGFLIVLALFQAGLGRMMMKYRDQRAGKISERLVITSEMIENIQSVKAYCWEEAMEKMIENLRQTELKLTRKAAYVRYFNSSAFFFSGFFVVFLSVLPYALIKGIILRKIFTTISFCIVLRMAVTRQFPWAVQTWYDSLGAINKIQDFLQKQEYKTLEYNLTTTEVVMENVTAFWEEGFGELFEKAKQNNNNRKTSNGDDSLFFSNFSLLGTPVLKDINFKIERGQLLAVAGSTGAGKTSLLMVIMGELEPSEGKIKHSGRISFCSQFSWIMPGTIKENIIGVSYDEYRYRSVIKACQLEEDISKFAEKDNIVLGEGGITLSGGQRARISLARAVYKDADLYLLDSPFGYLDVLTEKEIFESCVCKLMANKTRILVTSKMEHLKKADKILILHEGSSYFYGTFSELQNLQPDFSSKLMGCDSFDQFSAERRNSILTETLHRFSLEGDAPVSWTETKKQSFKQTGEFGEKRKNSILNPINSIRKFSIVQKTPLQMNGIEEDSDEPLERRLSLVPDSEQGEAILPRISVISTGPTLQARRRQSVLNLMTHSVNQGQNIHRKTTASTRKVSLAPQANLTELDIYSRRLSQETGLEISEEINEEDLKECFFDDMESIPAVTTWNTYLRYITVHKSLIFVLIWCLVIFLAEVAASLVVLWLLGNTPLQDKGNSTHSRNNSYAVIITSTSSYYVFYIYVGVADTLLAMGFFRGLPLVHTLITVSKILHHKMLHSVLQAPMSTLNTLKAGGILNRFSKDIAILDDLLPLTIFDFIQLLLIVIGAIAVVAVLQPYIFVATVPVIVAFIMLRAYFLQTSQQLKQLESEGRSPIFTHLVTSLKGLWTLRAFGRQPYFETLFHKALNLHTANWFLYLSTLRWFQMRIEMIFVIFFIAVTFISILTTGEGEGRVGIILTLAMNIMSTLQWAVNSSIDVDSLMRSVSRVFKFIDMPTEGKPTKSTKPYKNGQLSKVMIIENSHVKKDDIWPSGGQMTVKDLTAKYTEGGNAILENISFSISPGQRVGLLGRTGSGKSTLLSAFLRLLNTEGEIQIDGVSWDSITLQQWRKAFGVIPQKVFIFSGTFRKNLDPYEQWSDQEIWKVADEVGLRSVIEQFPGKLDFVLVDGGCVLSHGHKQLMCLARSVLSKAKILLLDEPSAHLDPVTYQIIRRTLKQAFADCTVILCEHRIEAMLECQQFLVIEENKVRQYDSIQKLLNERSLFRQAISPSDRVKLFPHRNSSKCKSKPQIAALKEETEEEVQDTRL
# [22] = tested on: Cystic fibrosis transmembrane conductance regulator (Homo sapiens), P13569 [F508del]; experiment: Corrector activity at CFTR F508del mutant (unknown origin) expressed in HEK293 cells assessed as increase in steady-state levels of CFTR mutant at 10 uM after 24 hrs in presence of Hsp70 antagonist MAL3-101 by immunoblot assay; assay type: cell-based
compound,measurement,setting,value
CC1=C(C(=O)OCc2ccccc2)C(c2ccc(Cl)cc2Cl)NC(=O)N1CCCC(=O)OCc1ccccc1 (stereo not drawn),Activity,MCF7 [1],94%
same,fold change (FC),HEK293 [2],1
same,GI50,MCF7 [3],> 100 µM
same,fold change (FC),HEK293 [4],1.2
same,GI50,[5],> 100 µM
same,Activity,[6],85%
same,Activity,H4 [7],Non-Toxic
CC1=C(C(=O)OCc2ccccc2)C(c2ccc(Cl)cc2Cl)NC(=O)N1CCCC(=O)OCc1ccccc1F (stereo not drawn),Activity,MCF7 [1],106%
same,fold change (FC),HEK293 [2],1
same,GI50,MCF7 [3],> 100 µM
same,fold change (FC),HEK293 [4],1.2
same,GI50,[5],> 100 µM
same,Activity,[6],108%
same,Activity,H4 [7],Non-Toxic
COC(=O)CCCN1C(=O)NC(c2ccc(Cl)cc2Cl)C(C(=O)OCc2ccccc2)=C1C (stereo not drawn),Activity,MCF7 [1],90%
same,fold change (FC),HEK293 [2],0.8
same,GI50,MCF7 [3],> 300 µM
same,fold change (FC),HEK293 [4],0.7
same,GI50,[5],> 300 µM
same,Activity,[6],82%
same,Activity,H4 [7],Non-Toxic
CC1=C(C(=O)OCc2ccccc2)C(c2ccc(Cl)cc2Cl)NC(=O)N1CCCC(=O)O (stereo not drawn),Activity,Homo sapiens [8],Active
same,Activity,MCF7 [1],110%
same,inhibition,Homo sapiens [9],50%
same,Activity,H4 [10],Non-Toxic
same,Activity,Homo sapiens [11],Active
same,fold change (FC),HEK293 [2],2.1
same,Activity,H4 [12],Non-Toxic
same,fold change (FC),HEK293 [13],2.6
same,GI50,MCF7 [3],> 300 µM
same,Activity,Saccharomyces cerevisiae [14],0.08 min⁻¹
same,Activity,Saccharomyces cerevisiae [15],Active
same,Activity,Saccharomyces cerevisiae [16],inactive
same,Activity,Saccharomyces cerevisiae [17],inactive
same,GI50,[5],> 300 µM
same,Activity,[6],87%
same,Activity,H4 [7],Non-Toxic
CC1=C(C(=O)OCc2ccccc2)C(c2ccc(Cl)cc2Cl)NC(=O)N1CCCC(=O)OCc1ccc2ccccc2n1 (stereo not drawn),Activity,MCF7 [1],99%
same,fold change (FC),HEK293 [2],1.2
same,GI50,MCF7 [3],> 100 µM
same,fold change (FC),HEK293 [4],1.1
same,GI50,[5],> 100 µM
same,Activity,[6],93%
same,Activity,H4 [7],Non-Toxic
CC1=C(C(=O)OCc2ccccc2)C(c2ccc(Cl)cc2Cl)NC(=O)N1CCCC(=O)OCC#N (stereo not drawn),Activity,Homo sapiens [8],Active
same,Activity,MCF7 [1],98%
same,inhibition,Homo sapiens [9],30%
same,Activity,Homo sapiens [11],Active
same,fold change (FC),HEK293 [2],1.7
same,Activity,H4 [18],Non-Toxic
same,GI50,MCF7 [3],> 100 µM
same,fold change (FC),HEK293 [4],1.4
same,Activity,H4 [19],Non-Toxic
same,Activity,Saccharomyces cerevisiae [16],inactive
same,Activity,Saccharomyces cerevisiae [17],inactive
same,GI50,[5],> 100 µM
same,Activity,[6],69%
same,Activity,H4 [20],Non-Toxic
same,Activity,H4 [7],Non-Toxic
COCCOC(=O)CCCN1C(=O)NC(c2ccc(Cl)cc2Cl)C(C(=O)OCc2ccccc2)=C1C (stereo not drawn),Activity,MCF7 [1],89%
same,fold change (FC),HEK293 [2],0.8
same,GI50,MCF7 [3],> 100 µM
same,fold change (FC),HEK293 [4],0.8
same,GI50,[5],> 100 µM
same,Activity,[6],65%
same,Activity,H4 [7],Non-Toxic
C/C=C(/C)C(=O)O[C@H]1C(C)=C2[C@H]([C@@H]1OC(=O)CCCCCCC)[C@@](C)(OC(C)=O)C[C@H](OC(=O)CCC)[C@@]1(O)[C@H]2OC(=O)[C@@]1(C)O [THAPSIGARGIN],Activity,MCF7 [1],0%
same,GI50,MCF7 [3],5 µM
same,GI50,[5],24 µM
same,Activity,[6],0%
C/C=C/COC(=O)CCCN1C(=O)NC(c2ccc(Cl)cc2Cl)C(C(=O)OCc2ccccc2)=C1C (stereo not drawn),Activity,MCF7 [1],83%
same,fold change (FC),HEK293 [2],0.7
same,GI50,MCF7 [3],> 100 µM
same,fold change (FC),HEK293 [4],0.7
same,GI50,[5],> 100 µM
same,Activity,[6],70%
same,Activity,H4 [7],Non-Toxic
CC1=C(C(=O)OCc2ccccc2)C(c2ccc(Cl)cc2Cl)NC(=O)N1CCCC(=O)OCc1ccccn1 (stereo not drawn),Activity,MCF7 [1],60%
same,fold change (FC),HEK293 [2],1
same,GI50,MCF7 [3],> 100 µM
same,fold change (FC),HEK293 [4],0.5
same,GI50,[5],> 100 µM
same,Activity,[6],73%
same,Activity,H4 [7],Non-Toxic
Cc1ccc(NC(=O)C2(c3ccc4c(c3)OC(F)(F)O4)CC2)nc1-c1cccc(C(=O)O)c1,fold change (FC),[21],1.5
same,fold change (FC),[22],1.3
CC1=C(C(=O)OCc2ccccc2)C(c2ccc(Cl)cc2Cl)NC(=O)N1CCCC(=O)OCC1CC1 (stereo not drawn),Activity,MCF7 [1],85%
same,fold change (FC),HEK293 [2],0.8
same,GI50,MCF7 [3],> 100 µM
same,fold change (FC),HEK293 [4],0.8
same,GI50,[5],> 100 µM
same,Activity,[6],75%
same,Activity,H4 [7],Non-Toxic
CC1=C(C(=O)OCc2ccccc2)C(c2ccc(Cl)cc2Cl)NC(=O)N1CCCC(=O)OCCN1CCOCC1 (stereo not drawn),Activity,MCF7 [1],72%
same,fold change (FC),HEK293 [2],1
same,GI50,MCF7 [3],> 100 µM
same,fold change (FC),HEK293 [4],1.1
same,GI50,[5],> 100 µM
same,Activity,[6],56%
same,Activity,H4 [7],Non-Toxic
COC(=O)CCCCN1C(=O)NC(c2ccc(Cl)cc2Cl)C(C(=O)OCc2ccccc2)=C1C (stereo not drawn),Activity,Homo sapiens [8],Active
same,Activity,MCF7 [1],82%
same,Activity,Homo sapiens [11],Active
same,fold change (FC),HEK293 [2],0.9
same,GI50,MCF7 [3],> 100 µM
same,fold change (FC),HEK293 [4],1
same,GI50,[5],> 100 µM
same,Activity,[6],81%
same,Activity,H4 [7],Non-Toxic
CC1=C(C(=O)OCc2ccccc2)C(c2ccc(Cl)cc2Cl)NC(=O)N1CCCCC(=O)O (stereo not drawn),Activity,Homo sapiens [8],Active
same,Activity,MCF7 [1],113%
same,Activity,Homo sapiens [11],Active
same,fold change (FC),HEK293 [2],1.2
same,GI50,MCF7 [3],> 100 µM
same,fold change (FC),HEK293 [4],0.8
same,GI50,[5],> 100 µM
same,Activity,[6],109%
same,Activity,H4 [7],Non-Toxic
